Laboratory results: patent US10314816B2, “Antimicrobial compounds, compositions and methods of use thereof” (Wisconsin Alumni Research Foundation, priority 2012, dated 2019)

Key:
C. crescentus CB15N = test: Minimum biofilm inhibitory concentration (bMIC); assay type: cell-based, Caulobacter crescentus
Experimental: Determination of the minimum biofilm inhibitory concentration of growth (bMIC) and biofilm eradication concentration (MBEC). Overnight cultures of C. crescentus and S. aureus were grown and diluted 100-fold into appropriate nutrient media. Aliquots of the diluted suspension were transferred into wells of 96-well plates (150 μL/well). 2-fold serial dilutions were performed for compound-containing wells. For every experiment, three replicates for each compound concentration tested were included. After transferring aliquots of the suspension, the plates were closed with specialized lids that have protruding pins (Nunc STP System), and the plates were sealed using Parafilm®. The plates were incubated in a static incubator at 30° C. (C. crescentus) or 37° C. (S. aureus) for 24 hours. After the cells had formed biofilms on the surface of the pins, the pins were rinsed by dipping them in M2 (C. crescentus) or PBS (S. aureus) solutions. To rinse the pins, clean, sterile 96-well plates were used (aliquots of 200 μL/well); each rinse lasted 10 sec. After washing away planktonic cells loosely bound to biofilms, the pins were inserted into a 96-well plate that was pre-aliquoted with nutrient media containing antibiotics (2-fold dilutions, a final volume of 150 μL/well). The plates were sealed with Parafilm®, and incubated for 17 hours, and the bMIC was measured at the end of the incubation by visual inspection. […] The plates were sealed with Parafilm®, incubated for 24 hours, and the MBEC was measured at the end of the incubation by visual inspection.
Membrane-active compounds are also efficient at eradicating biofilm-associated cells (Table 2). […] To determine the efficacy of antibiotics against biofilms, the minimum biofilm inhibitory concentration (bMIC) and the minimum biofilm eradication concentration (MBEC) were measured. […] After 24 hours of exposure to compounds, the lowest concentration of antibiotic that inhibited planktonic cell growth in the wells (bMIC) was determined.

Venus-FtsA = test: Measurement of compound effects on FtsA localization; assay type: cell-based, Caulobacter crescentus; settings: C. crescentus, 20 minutes
Experimental: Measurement of compound effects on FtsA: For experiments with C. crescentus expressing Venus-FtsA, a synchronized population of cells was used. First, an overnight culture was grown with kanamycin (5 μg/mL) and glucose (0.02% w/v). The presence of glucose suppressed the transcription of venus-ftsA from its xylose-inducible promoter. 2 mL of this culture was diluted into 25 mL of fresh PYE with the antibiotic and glucose, and incubated further to achieve an absorbance of ˜0.6 (λ=600 nm). Once the cells reached mid-exponential phase, the culture was centrifuged for 10 minutes at 6000 rpm and 4° C. The cell pellet was resuspended in ice-cold M2 (a final volume of approximately 1000 μL) and 750 μL of this suspension was added to an equal-volume of sterile Percol (Sigma Aldrich). After thoroughly mixing the solution, it was centrifuged for 20 minutes at 11,000 rpm and 4° C. Upon centrifugation, the bottom band (swarmer cells) was taken and the cells were washed in ice-chilled M2 solution (1 mL). The washed cell pellet was suspended in fresh PYE containing kanamycin (no glucose, 6 mL). The cell suspension was incubated for 20 minutes and then xylose (0.03% w/v) was added to induce the expression of venus-ftsA. Cells were grown for another 20 minutes and subsequently treated with compounds. The cells were incubated for 20 minutes again in the presence of the compounds prior to imaging. Thus, the total time of xylose induction was 40 minutes, and the total time of compound treatment was 20 minutes. At this time point (60 minutes post synchrony), the majority of the cells were at the beginning of cell division. Imaging conditions and data analysis were identical to the conditions described for MipZ-YFP, except for a set of criteria used for defining ‘wildtype’ protein localization. ‘Wildtype’ was defined as 1) Venus-FtsA is unipolar, meaning there was one peak, and the peak resided within a polar region; and 2) Venus-FtsA was at the mid-cell, meaning there was one peak and it was within the mid-cell region (40-60% of the normalized cell length). […]

[1] = system: rabbit red blood cells (RBC); test: Rabbit red blood cell (RBC) hemolysis assay; assay type: cell-based
Experimental: Rabbit red blood cell (RBC) hemolysis assay. Rabbit RBCs from Lampire Biological Laboratories were used. Prior to preparing the RBCs, compound-containing PBS solutions were serially diluted into a 96-well plate (a final volume of 100 μL/well). The RBC lysis solution (Epicentre Biotechnology) was included as a positive control for hemolysis. For each assay, 1 mL of the RBC suspension was removed from the stock bottle and centrifuged for 2 minutes at 2000 rpm. The pelleted cells were resuspended in sterile PBS solution and centrifuged again. The cells were resuspended in PBS and diluted 5-fold into the same solution. 100 μL aliquots of RBCs were added into wells of a 96-well plate that contained an equal volume of a solution of compound in PBS. The plates were incubated for varying amounts of time depending on the microbial assay conditions to be emulated. For MIC-like conditions, plates were incubated for at least 17 hours at 30° C. or 37° C. For MSC-like conditions, the incubation time was either 2 hours or 6 hours at 30° C. or 37° C. During the incubation, un-lysed RBCs settled at the bottom of the wells. At the end of the incubation, 90 μL of the supernatant was transferred into the wells of a fresh 96-well plate, and the absorbance of the heme at 2=405 nm was measured.
To test the toxicity of DCAP against mammalian membranes, the hemolysis of rabbit red blood cells (RBC) was measured. These experiments were performed using conditions that closely mimicked the MIC and MSC assays. RBCs were treated with CCCP and DCAP at their MICs for the time periods used (17 hours) to determine the MIC of C. crescentus and S. aureus. After incubation, the absorbance of heme released from lysed RBCs was measured.
The MSC assay conditions were also reproduced to measure toxicity against RBCs. First, the minimum time required to obtain the MSC for DCAP treatment of C. crescentus (2 hours) and S. aureus (6 hours; data not shown) was determined.

[2] = compounds at their MICs for C. crescentus and S. aureus, 17 hours

In the case of N#CC(C#N)=NNc1cccc(Cl)c1 [CCCP, carbonyl cyanide m-chlorophenyl hydrazone], the bMIC (C. crescentus CB15N) is reported as 5 µM, the Venus-FtsA localization (Venus-FtsA; CCCP at its minimum inhibitory concentration (5 μM)) is reported as “did not alter the localization of FtsA” and the Venus-FtsA localization (Venus-FtsA; higher concentration of CCCP (25 μM)) is reported as “had a significant effect on the position of FtsA”. The “Hemolysis of rabbit RBCs” value [1, 2] was “did not significantly disrupt RBC membranes” and the “Hemolysis of rabbit RBCs” value ([1]; high concentration, MSC conditions for S. aureus (FIG. 8C)) was “toxic to RBCs at a high concentration”.

OCC(CO)(CO)NCC(O)Cn1c2ccc(Cl)cc2c2cc(Cl)ccc21 (stereo not shown) [DCAP, 2-((3-(3,6-dichloro-9H-carbazol-9-yl)-2-hydroxypropyl)amino)-2-(hydroxymethyl)propane-1,3-diol] was tested, and the bMIC (C. crescentus CB15N) was 20 µM, the Venus-FtsA localization (Venus-FtsA; treated with DCAP) was “exhibited multiple peaks of FtsA fluorescence (≥2)” and the “Hemolysis of rabbit RBCs” value ([1]; MSC assay conditions, 2 hours (C. crescentus) and 6 hours (S. aureus)) was “no significant toxicity”. For the same compound, the “Hemolysis of rabbit RBCs” value [1, 2] was “did not significantly disrupt RBC membranes” and the “Hemolysis of rabbit RBCs” value ([1]; higher concentrations of DCAP (i.e., 50 μM), 17 hours) was “moderately toxic to RBCs”.
